Laboratory results: patent US20050074879A1, “Antisense oligonucleotide modulation of STAT3 expression” (priority 2000, published 2005)
Oligonucleotides are written 5' to 3', each unit as a sugar letter and its base; * is a phosphorothioate linkage, no mark a phosphodiester; rarer units and linkages stand in square brackets, end groups in braces. Plain capitals give the bases only. e = 2'-O-(2-methoxyethyl) (MOE); [5mC] = 5-methylcytosine; d = 2'-deoxy (DNA)

Key:
Human STAT3 mRNA [1] = experiment: Human STAT3 mRNA dose response in T-24 cells, real-time PCR with PPS 2033 (Table 19); type: cell-based; settings: 16 hours, − decrease, + increase relative to untreated control
In short: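 T-24 cells got oligonucleotide at 18.75, 37.5, 75 or 150 nM with LIPOFECTIN (3 ug/mL per 100 nM oligo) for 16 h. STAT3 mRNA was quantified by real-time RT-PCR with primer-probe set PPS 2033, normalized to RiboGreen total RNA, and expressed as change versus untreated cells.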

Human STAT3 mRNA [2] = experiment: Human STAT3 mRNA dose response in A549 cells, real-time PCR with PPS 199 (Table 20); type: cell-based; settings: 16 hours, LIPOFECTIN, − decrease, + increase relative to untreated control cells
Procedure: An additional dose-response experiment was preformed in A549 cells. A549 cells were treated with 18.75, 37.5, 75, or 150 nM of oligonucleotide mixed with 3 ug/mL LIPOFECTIN per 100 nM oligonucleotide as described by other examples herein. Control oligonucleotides used were ISIS 129686 (SEQ ID NO: 394) and ISIS 129690 (SEQ ID NO: 393). Untreated cells served as controls. Following 16 hours of treatment, RNA was prepared from cells for subsequent real-time PCR analysis.
Human STAT3 mRNA expression levels were quantitated by real-time PCR using primer probe set PPS 199 and gene target quantities were normalized using Ribogreen as described in other examples herein. A “−” or “+” designation in the dose response results indicates a decrease or increase of STAT 3 mRNA expression, respectively, relative to untreated control cells.

Row | Substance | Percent change of STAT3 expression using PPS 2033 (Human STAT3 mRNA [1]; 18.75 nM oligonucleotide) [%] | Percent change of STAT3 expression using PPS 2033 (Human STAT3 mRNA [1]; 37.5 nM oligonucleotide) [%] | Percent change of STAT3 expression using PPS 2033 (Human STAT3 mRNA [1]; 75 nM oligonucleotide) [%] | Percent change of STAT3 expression using PPS 2033 (Human STAT3 mRNA [1]; 150 nM oligonucleotide) [%] | Percent change of STAT3 expression in A549 cells using PPS 199 (Human STAT3 mRNA [2]; 18.75 nM oligonucleotide) [%] | Percent change of STAT3 expression in A549 cells using PPS 199 (Human STAT3 mRNA [2]; 37.5 nM oligonucleotide) [%] | Percent change of STAT3 expression in A549 cells using PPS 199 (Human STAT3 mRNA [2]; 75 nM oligonucleotide) [%] | Percent change of STAT3 expression in A549 cells using PPS 199 (Human STAT3 mRNA [2]; 150 nM oligonucleotide) [%]
1 | 337332 (antisense eG*eA*eA*eG*e[5mC]*d[5mC]*d[5mC]*dT*dT*dG*d[5mC]*d[5mC]*dA*dG*d[5mC]*e[5mC]*eA*eT*eG*eT) [compound 337332] | −66 | −79 | −85 | −91 | −31 | −61 | −77 | −87
2 | 337333 (antisense eA*eA*eG*eG*eA*dG*dA*dA*dG*d[5mC]*d[5mC]*d[5mC]*dT*dT*dG*e[5mC]*e[5mC]*eA*eG*e[5mC]) [compound 337333] | −46 | −70 | −82 | −90 | −8 | −39 | −59 | −75
3 | 337348 (antisense eT*e[5mC]*e[5mC]*eG*eA*dA*dT*dG*d[5mC]*d[5mC]*dT*d[5mC]*d[5mC]*dT*d[5mC]*e[5mC]*eT*eT*eG*eG) [compound 337348] | −53 | −76 | −83 | −86 | −26 | −43 | −55 | −77
